Assay results as given in patent US20260140098A1, “METHOD FOR TREATING PLASMA SAMPLE CONTAINING (7aS,2'S)-2-OXO-CLOPIDOGREL AND METHOD FOR DETERMINING THE SAME” (CHENGDU SHIBEIKANG BIOMEDICAL TECHNOLOGY CO., LTD., priority 2021, published 2026).
Read-outs that look alike come from different tables or passages of the source.

Test: Stability of (7aS,2′S)-2-oxo-clopidogrel in plasma at −80° C., screening of reducing agent type (Example 5)
Assay type: in vitro ADME
Details: for recovery at 0 day, 0.1 ng/mL / recovery at 10 day, 0.1 ng/mL / recovery at 30 day, 0.1 ng/mL / recovery at 60 day, 0.1 ng/mL: theoretical 0.1 ng/mL; for recovery at 0 day, 0.1 ng/mL / recovery at 0 day, 12 ng/mL: day 0, read-out: Recovery rate; for recovery at 10 day, 0.1 ng/mL / recovery at 10 day, 12 ng/mL: day 10, read-out: Recovery rate; for recovery at 30 day, 0.1 ng/mL / recovery at 30 day, 12 ng/mL: day 30, read-out: Recovery rate; for recovery at 60 day, 0.1 ng/mL / recovery at 60 day, 12 ng/mL: day 60, read-out: Recovery rate; for recovery at 0 day, 12 ng/mL / recovery at 10 day, 12 ng/mL / recovery at 30 day, 12 ng/mL / recovery at 60 day, 12 ng/mL: theoretical 12.0 ng/mL
Procedure: S2. Plasma sample pre-treatment: taking 100 μl of the plasma, adding 5 μl of an internal standard working solution and 300 μl of acetonitrile respectively; after vortex mixing, centrifuging at 2-8° C. and 10,000 r/min for 10 min, and collecting the supernatant for later use.
S3. LC-MS/MS analysis: injecting 10 μl of the supernatant prepared from step S2 for determination, where the liquid chromatography conditions are: • the chromatographic column is Kinetex® 1.7 μm C18 100 A 100×2.1 mm; the column temperature is 40° C.; the mobile phase is acetonitrile-0.2% aqueous formic acid solution with a flow rate of 0.2 ml/min; and a gradient elution is carried out as specified in the table below:
ESI ion source, positive ion detection in multiple reaction monitoring mode (MRM); the quantitatively analyzed ions (7aS,2′S)-2-oxo-clopidogrel: m/z 338.100→155.000, IS: m/z 341.100→158.000, a capillary voltage of 4.0 KV, a cone voltage of 25 V, a desolvation gas temperature of 400° C. and a source temperature of 150° C. The optimal collision energy is 20 eV.
Blank plasma was taken and different antioxidants (DTT, TCEP, ME) were added to prepare plasma containing an antioxidant at a concentration of 100 mg/ml. Subsequently, standard series solution of (7aS,2′S)-2-oxo-clopidogrel was added separately to prepare quality control samples with two concentrations of (7aS,2′S)-2-oxo-clopidogrel (0.1 and 12.0 ng/ml), 3 samples for each concentration. They were placed in a refrigerator at −80° C., and the plasma samples at different placing time points were taken to examine the stability by pre-treating the plasma samples according to the method of S2 of Example 1, followed by LC/MS/MS determination according to the method of S3.

[1] = blank plasma containing DTT 100 mg/ml, DTT 100 mg/ml
[2] = blank plasma containing ME 100 mg/ml, ME 100 mg/ml
[3] = blank plasma containing TCEP 100 mg/ml, TCEP 100 mg/ml

## COC(=O)[C@H](c1ccccc1Cl)N1CC[C@@H]2SC(=O)C=C2C1 [(7aS,2′S)-2-oxo-clopidogrel, methyl(S)-2-(2-chlorophenyl)-2-((S)-2-oxo-2,6,7,7a-tetrahydrothieno[3,2-c]pyridin-5 (4H)-yl)acetate]
[1]
  recovery at 0 day, 0.1 ng/mL: 102%
  recovery at 10 day, 0.1 ng/mL: 103%
  recovery at 30 day, 0.1 ng/mL: 95.5%
[2]
  recovery at 0 day, 0.1 ng/mL: 102%
  recovery at 10 day, 0.1 ng/mL: 101%
  recovery at 30 day, 0.1 ng/mL: 91.5%
  recovery at 60 day, 0.1 ng/mL: 86.6%
  recovery at 0 day, 12 ng/mL: 101%
  recovery at 10 day, 12 ng/mL: 99.2%
  recovery at 30 day, 12 ng/mL: 96.5%
  recovery at 60 day, 12 ng/mL: 87.9%
[3]
  recovery at 60 day, 0.1 ng/mL: 101%
  recovery at 0 day, 12 ng/mL: 101%
  recovery at 10 day, 12 ng/mL: 100%
  recovery at 30 day, 12 ng/mL: 102%
  recovery at 60 day, 12 ng/mL: 101%
plasma, DTT 100 mg/ml
  recovery at 60 day, 0.1 ng/mL: 89.9%
  recovery at 0 day, 12 ng/mL: 101%
  recovery at 10 day, 12 ng/mL: 100%
  recovery at 30 day, 12 ng/mL: 98.9%
  recovery at 60 day, 12 ng/mL: 92.4%
plasma, TCEP 100 mg/ml
  recovery at 0 day, 0.1 ng/mL: 102%
  recovery at 10 day, 0.1 ng/mL: 105%
  recovery at 30 day, 0.1 ng/mL: 99.3%
With TCEP compared with DTT and ME, 100 mg/ml
  Stability of plasma samples (in words): better than that of the plasma samples with DTT and ME
